These results are taken from US20250388574A1, “HETEROCYCLIC COMPOUNDS AS TRIGGERING RECEPTOR EXPRESSED ON MYELOID CELLS 2 AGONISTS AND METHODS OF USE” (AMGEN INC., priority 2020, published 2025).

What is called EC50 is the concentration needed to bring the measured effect to its halfway point.

This experiment concerns the target hTREM2 (Homo sapiens, UniProt Q9NZC2). Put plainly: Phospho-Syk AlphaScreen/AlphaLISA assay in TREM2 and DAP12 overexpressing HEK293 cells (Example A1). It counts as cell-based. More on the design: expressed in transfected cells. As to conditions: HEK293 cells; for EC50: read-out: hTREM2 EC50. On the procedure: Pharmacological measurements of TREM2 signaling through DAP12 were made with TREM2 and DAP12 overexpressing HEK293 cells stable cell lines that had been single-cell cloned (“TREM2/DAP12-HEK”). The readout of the TREM2 signaling utilized Perkin Elmer AlphaScreen/AlphaLISA technology monitoring the phosphorylation levels of the Syk kinase. TREM2/DAP12-HEK cell lines were cultured in DMEM-F12 (Corning 10-092-CM) supplemented with 1× Penicillin/Streptomycin (Corning 30-002-CI), 1× GlutaMAX (Gibco 35050-061), and 10% Fetal Bovine Serum (Life Technologies 10099) referred to as “HEK Culture Medium”. Suspensions of TREM2/DAP12-HEK cells were prepared in HEK Culture Medium and dispensed into 384-well poly-D-lysine coated microplates (Corning 354661) at a density of 20,000 cells/well using a Multidrop Combi peristaltic microplate dispenser (Thermo), 25 uL volume of cell suspension/well. Plates containing cells were then incubated for 20 hours in a humidified cell culture incubator at 37° C. with 5% CO2 (Thermo). […] Assay Buffer contained diluted test articles (in 1% final DMSO concentration for compounds) or 100 nM anti-human/mouse TREM2 antibody (R&D Systems MAB17291) as a positive control, 100 nM or rat IgG2B isotype Ab as a negative control (R&D Systems MAB0061). Incubated the plates with test articles and controls for 45 minutes at room temperature and then aspirated/removed the medium from each well of the plates. Used a Multidrop Combi peristaltic liquid handler (Thermo) to dispense 15 uL/well of “Cell Lysis Immunoassay Buffer”. The Cell Lysis Immunoassay Buffer contained M-PER Mammalian Protein Extraction Reagent (Pierce/ThermoFisher 78505), 1× Halt Phosphatase Inhibitor Cocktail (ThermoFisher #78427), 0.1875 nM anti-phospho-Syk ([…]/526) ([…]) rabbit mAb (Cell Signaling Technologies catalog #2710), and 1.5 nM biotinylated Mouse anti-human Syk (4D10) antibody (BD Biosciences, catalog #624008). Incubated plates for 1 hour at room temperature after the addition of the Cell Lysis Immunoassay Buffer. Used the Multidrop Combi liquid handler to dispense 15 μL of AlphaScreen Acceptor Bead Solution containing 7.5 μg/mL anti-rabbit IgG (Fc specific) AlphaLISA Acceptor Beads (Perkin Elmer A[…]) in 1× Immunoassay buffer (Perkin Elmer A[…]) to each well of the microplates. Incubated plates for 2 hours at room temperature. Following the incubation with the AlphaLISA Acceptor Bead Solution, used a Multidrop Combi liquid handler (Thermo) to dispense 15 μL of AlphaScreen Donor Bead Solution containing 30 μg/mL of AlphaScreen Streptavidin Donor beads (Perkin Elmer 6760002B) in 1× Immunoassay buffer (Perkin Elmer A[…]) to each well of the microplates. Incubated microplates for 2 hours protected from light sources as the AlphaScreen reagents are light sensitive. Once the final incubation was completed, acquired AlphaScreen signal from the donor and acceptor beads using an Envision high throughput multi-modal microplate reader (Perkin Elmer) calibrated to the plate type with the AlphaScreen mirror and filter-set in 384-well mode, 680 nanometer excitation wavelength. The total measurement time per well was 550 milliseconds with a 180 millisecond excitation time. After reading the AlphaScreen signal for each well of the microplates, on a plate-by-plate basis, each raw test article well value (x) was normalized to a Percent of Control (“POC”) value using the following formula: […] Each plate contained 12 of each type of control wells that were used to generate the mean values. For concentration response curve analysis with test articles tested at various concentrations, the % of activation values were analyzed with 4 Parameter Logistic or Sigmoidal Dose-Response Models using GeneData Screener (GeneData, AG) or GraphPad Prism 7 (Graphpad Software, Inc.). […] This assay may be used to test any of the compounds described herein to assess and characterize a compound's ability to act as an agonist of TREM2.
A general note: In Alpha technology, singlet oxygen from a donor bead excites a nearby acceptor bead.

hTREM2, sequence (Q9NZC2 19-230): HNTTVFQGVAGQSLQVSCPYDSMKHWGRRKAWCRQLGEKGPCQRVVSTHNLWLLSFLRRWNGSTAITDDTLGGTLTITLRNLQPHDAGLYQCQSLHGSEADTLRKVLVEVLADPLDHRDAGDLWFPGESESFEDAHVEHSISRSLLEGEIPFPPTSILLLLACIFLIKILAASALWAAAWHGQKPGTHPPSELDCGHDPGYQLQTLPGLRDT
hTREM2, sequence (O43914 22-113 partner): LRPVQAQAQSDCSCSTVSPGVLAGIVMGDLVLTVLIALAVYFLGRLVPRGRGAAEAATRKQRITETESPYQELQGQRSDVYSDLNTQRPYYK

For the molecule `COc1cc([C@@H]2C[C@H](c3cc4nc(C)n(C)c(=O)c4c(-c4ccc(Cl)cc4F)n3)CCO2)ccn1` [Example 267, 5-(4-chloro-2-fluorophenyl)-7-((2S,4R)-2-(2-methoxypyridin-4-yl)tetrahydro-2H-pyran-4-yl)-2,3-dimethylpyrido[4,3-d]pyrimidin-4(3H)-one], the Emax result is “+++ (Emax>200 and ≤300)”; the 50% effective concentration (EC50) was < 50 nM.

Regarding `CCCn1c(C)nc2cc(N3CCO[C@H](c4ccccc4)C3)nc(-c3ccc(Cl)cc3F)c2c1=O` [Example 186, (R)-5-(4-chloro-2-fluorophenyl)-2-methyl-7-(2-phenylmorpholino)-3-propylpyrido[4,3-d]pyrimidin-4(3H)-one], the Emax result is listed as “++++ (Emax>300)” and the EC50 lay in the range of 500 to 3000 nM.

`Cc1cnn([C@H]2CCN(c3cc4nc(C)n(C)c(=O)c4c(-c4ccc(Cl)cc4F)n3)C2)c1` [Example 204, (S)-5-(4-chloro-2-fluorophenyl)-2,3-dimethyl-7-(3-(4-methyl-1H-pyrazol-1-yl)pyrrolidin-1-yl)pyrido[4,3-d]pyrimidin-4(3H)-one]: the Emax result was “+ (Emax>45 and ≤100)”; the half-maximal effective concentration (EC50) fell in the range of 3000 to 100000 nM.

For `Cc1noc([C@H]2CCCN(c3cc4nc(C)n(C)c(=O)c4c(-c4ccc(Cl)cc4F)n3)C2)n1` (single isomer, unassigned) [Example 112], the Emax result was “+++ (Emax>200 and ≤300)”; the EC50 is 3000 to 100000 nM.

Regarding `Cc1nc2cc(N3CCO[C@H]([C@@H]4CCO4)C3)nc(-c3ccc(Cl)cc3F)c2c(=O)n1C` (single isomer, unassigned) [Example 40], the Emax result was “+++ (Emax>200 and ≤300)”; the EC50 is 500 to 3000 nM.

With `COc1cc([C@H]2CN(c3cc4nc(C)n(C)c(=O)c4c(-c4ccc(Cl)cc4F)n3)CCO2)ccn1` (single isomer, unassigned) [Example 82], the Emax entry is listed as “++++ (Emax>300)” and the EC50 is < 50 nM.

Regarding `Cc1nc2cc(N3CCC(C(F)(F)F)C3)nc(-c3ccc(Cl)cc3F)c2c(=O)n1C` (stereo not drawn) [Example 119, 5-(4-chloro-2-fluorophenyl)-2,3-dimethyl-7-(3-(trifluoromethyl)-1-pyrrolidinyl)pyrido[4,3-d]pyrimidin-4(3H)-one], the Emax entry is “+++ (Emax>200 and ≤300)”; the EC50 was in the range of 50 to 500 nM.

In the case of `Cc1nc2cc(N3CCO[C@H]([C@H]4CCOC4)C3)nc(-c3ccc(Cl)cc3F)c2c(=O)n1C` (single isomer, unassigned) [Example 43], the Emax entry was “+++ (Emax>200 and ≤300)”; the concentration for a half-maximal effect (EC50) lay in the range of 50 to 500 nM.

Regarding `Cc1nc2cc(N3CCO[C@](C)(c4cnn(C)c4)C3)nc(-c3ccc(Cl)cc3F)c2c(=O)n1C` [Example 225, (R)-5-(4-chloro-2-fluorophenyl)-2,3-dimethyl-7-(2-methyl-2-(1-methyl-1H-pyrazol-4-yl)morpholino)pyrido[4,3-d]pyrimidin-4(3H)-one], the Emax result is reported as “++++ (Emax>300)” and the concentration for a half-maximal effect (EC50) lay within 500 to 3000 nM.

Take `Cc1nc2cc(N3CCO[C@@H](c4cnn(C5CN(C(=O)OC(C)(C)C)C5)c4)C3)nc(-c3ccc(Cl)cc3F)c2c(=O)n1C` [Example 134, 2-methyl-2-propanyl 3-(4-((2S)-4-(5-(4-chloro-2-fluorophenyl)-2,3-dimethyl-4-oxo-3,4-dihydropyrido[4,3-d]pyrimidin-7-yl)-2-morpholinyl)-1H-pyrazol-1-yl)-1-azetidinecarboxylate]: the Emax result is “++++ (Emax>300)” and the 50% effective concentration (EC50) fell in the range of 50 to 500 nM.

`Cc1nc2cc(N3CC[C@H](c4ccncc4)C3)nc(-c3ccc(Cl)cc3F)c2c(=O)n1C` [Example 254, (R)-5-(4-chloro-2-fluorophenyl)-2,3-dimethyl-7-(3-(pyridin-4-yl)pyrrolidin-1-yl)pyrido[4,3-d]pyrimidin-4(3H)-one]: the Emax result is listed as “++++ (Emax>300)” and the EC50 was in the range of 3000 to 100000 nM.

Turning to `CCCn1c(C)nc2cc(N3CCOC(CF)C3)nc(-c3ccc(Cl)cc3F)c2c1=O` (stereo not drawn) [Example 185, 5-(4-chloro-2-fluorophenyl)-7-(2-(fluoromethyl)morpholino)-2-methyl-3-propylpyrido[4,3-d]pyrimidin-4(3H)-one], the Emax entry is “+++ (Emax>200 and ≤300)”; the EC50 was in the range of 500 to 3000 nM.

On to `Cc1nc2cc(N3CCC[C@@H](N4CCC4)C3)nc(-c3ccc(Cl)cc3F)c2c(=O)n1C` [Example 246, (R)-7-(3-(azetidin-1-yl)piperidin-1-yl)-5-(4-chloro-2-fluorophenyl)-2,3-dimethylpyrido[4,3-d]pyrimidin-4(3H)-one], for which the Emax entry was “+++ (Emax>200 and ≤300)”; the EC50 lay in the range of 3000 to 100000 nM.

As for `Cc1nc2cc(N3CCO[C@@H](c4cnn(C5CCC5)c4)C3)nc(-c3ccc(Cl)cc3F)c2c(=O)n1C` [Example 124, 5-(4-chloro-2-fluorophenyl)-7-((2S)-2-(1-cyclobutyl-1H-pyrazol-4-yl)-4-morpholinyl)-2,3-dimethylpyrido[4,3-d]pyrimidin-4(3H)-one], the Emax result is given as “++++ (Emax>300)” and the concentration for a half-maximal effect (EC50) is < 50 nM.

As to `COc1cc([C@@H]2C[C@@H](c3cc4nc(C)n(C)c(=O)c4c(-c4ccc(Cl)cc4F)n3)CCO2)ccn1` (single isomer, unassigned) [Example 175], the Emax result is “+++ (Emax>200 and ≤300)”; the concentration for a half-maximal effect (EC50) lay within 50 to 500 nM.

In the case of `Cc1nc2cc([C@@H]3CCO[C@H](c4cnn(C5CC5)c4)C3)nc(-c3ccc(Cl)cc3F)c2c(=O)n1C` (single isomer, unassigned) [Example 166], the Emax result is “+++ (Emax>200 and ≤300)”; the EC50 was 500 to 3000 nM.

For `Cc1nc2cc(N3CCO[C@@H](c4cnn(CCN(C)C)c4)C3)nc(-c3ccc(Cl)cc3F)c2c(=O)n1C` [Example 132, 5-(4-chloro-2-fluorophenyl)-7-((2S)-2-(1-(2-(dimethylamino)ethyl)-1H-pyrazol-4-yl)-4-morpholinyl)-2,3-dimethylpyrido[4,3-d]pyrimidin-4(3H)-one], the Emax result is “++++ (Emax>300)” and the EC50 lay within 50 to 500 nM.

Take `Cc1nc2cc(N3CCC[C@H](N4CCC4)C3)nc(-c3ccc(Cl)cc3F)c2c(=O)n1C` [Example 245, (S)-7-(3-(azetidin-1-yl)piperidin-1-yl)-5-(4-chloro-2-fluorophenyl)-2,3-dimethylpyrido[4,3-d]pyrimidin-4(3H)-one]: the Emax entry was “++ (Emax>100 and ≤200)”; the EC50 fell in the range of 3000 to 100000 nM.

Take `Cc1nccc(C2CN(c3cc4nc(C)n(C)c(=O)c4c(-c4ccc(Cl)cc4F)n3)CCO2)n1` (stereo not drawn) [Example 63, 5-(4-chloro-2-fluorophenyl)-2,3-dimethyl-7-(2-(2-methyl-4-pyrimidinyl)-4-morpholinyl)pyrido[4,3-d]pyrimidin-4(3H)-one]: the Emax entry is given as “++++ (Emax>300)” and the EC50 lay in the range of 500 to 3000 nM.

For the molecule `Cc1nc2cc(N3CCO[C@H](C4CC4)C3)nc(-c3ccc(Cl)cc3F)c2c(=O)n1C` [Example 194, (R)-5-(4-chloro-2-fluorophenyl)-7-(2-cyclopropylmorpholino)-2,3-dimethylpyrido[4,3-d]pyrimidin-4(3H)-one], the Emax result was “+++ (Emax>200 and ≤300)”; the concentration for a half-maximal effect (EC50) was 3000 to 100000 nM.

With `Cn1cc([C@H]2CN(c3cc4nc(C(F)(F)F)n(C)c(=O)c4c(-c4ccc(Cl)cc4F)n3)CCO2)cn1` [Example 143, 5-(4-chloro-2-fluorophenyl)-3-methyl-7-((2S)-2-(1-methyl-1H-pyrazol-4-yl)-4-morpholinyl)-2-(trifluoromethyl)pyrido[4,3-d]pyrimidin-4(3H)-one], the Emax entry is given as “++++ (Emax>300)” and the EC50 was in the range of 50 to 500 nM.
